Several values for one entry are separate records, joined by “and”; a condition that tells them apart may be missing. Equal entries are not always repeated. Inconclusive results and toxic doses are left out. Cut-off read from the data, not from the text of the source: active = T/C of 150% or more; inactive = T/C below 125%.
System: L1210 leukemia ip in BDF1 mice, survival T/C
Assay: NCI In Vivo Anticancer Drug Screen. Data for tumor model L1210 Leukemia (intraperitoneal) in B6D2F1 (BDF1) mice
Conditions: endpoint: mean survival time, higher = longer survival
Method in brief: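 Mice bearing the transplanted tumor received compound or vehicle. Survival of the treated group was divided by that of the vehicle-treated control group to give the ratio.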

[1] = dose: 100.0 mg/kg/injection, schedule: Q04DX003 (ip), vehicle: saline with Tween-80
[2] = dose: 200.0 mg/kg/injection, schedule: Q04DX003 (ip), vehicle: saline with Tween-80
[3] = dose: 400.0 mg/kg/injection, schedule: Q04DX003 (ip), vehicle: saline with Tween-80
[4] = dose: 100.0 mg/kg/injection, schedule: Q04DX003 (ip), vehicle: Klucel (hydroxypropylcellulose) (HPC)
[5] = dose: 200.0 mg/kg/injection, schedule: Q04DX003 (ip), vehicle: Klucel (hydroxypropylcellulose) (HPC)
[6] = dose: 400.0 mg/kg/injection, schedule: Q04DX003 (ip), vehicle: Klucel (hydroxypropylcellulose) (HPC)
[7] = dose: 100.0 mg/kg/injection, schedule: Q01DX009 (ip), vehicle: saline with Tween-80
[8] = dose: 200.0 mg/kg/injection, schedule: Q01DX009 (ip), vehicle: saline with Tween-80
[9] = dose: 400.0 mg/kg/injection, schedule: Q01DX009 (ip), vehicle: saline with Tween-80

Measured: T/C

Cc1cc(C)c(C(=O)O)c(C)c1Br
inactive: dose: 50.0 mg/kg/injection, schedule: Q01DX001 (ip), vehicle: other 98 % of control | dose: 100.0 mg/kg/injection, schedule: Q01DX001 (ip), vehicle: other 104 % of control | [1] 96 % of control | dose: 200.0 mg/kg/injection, schedule: Q01DX001 (ip), vehicle: other 96 % of control | [2] 94 % of control | dose: 400.0 mg/kg/injection, schedule: Q01DX001 (ip), vehicle: other 111 % of control | [3] 103 % of control

COc1ccc(OC)c(CC(CC(=O)O)(C(=O)O)C(=O)O)c1
inactive: [4] 91 % of control | [5] 96 % of control | [6] 96 % of control

Oc1ccccc1/C=N/C(O)C(Cl)(Cl)Cl (stereo unspecified)
inactive: dose: 100.0 mg/kg/injection, schedule: Q04DX002 (ip), vehicle: Klucel (hydroxypropylcellulose) (HPC) 96 % of control | dose: 200.0 mg/kg/injection, schedule: Q04DX002 (ip), vehicle: Klucel (hydroxypropylcellulose) (HPC) 114 % of control | dose: 400.0 mg/kg/injection, schedule: Q04DX002 (ip), vehicle: Klucel (hydroxypropylcellulose) (HPC) 107 % of control

CCOC(OCC)C(C)(C)OC=O
inactive: dose: 100.0 mg/kg/injection, schedule: Q01DX001 (ip), vehicle: saline 103 % of control | dose: 200.0 mg/kg/injection, schedule: Q01DX001 (ip), vehicle: saline 103 % of control | dose: 400.0 mg/kg/injection, schedule: Q01DX001 (ip), vehicle: saline 103 % of control

CC(C#N)N(C)C (stereo unspecified)
inactive: dose: 5.0 mg/kg/injection, schedule: Q01DX001 (ip), vehicle: saline 96 % of control | dose: 10.0 mg/kg/injection, schedule: Q01DX001 (ip), vehicle: saline 104 % of control | dose: 10.0 mg/kg/injection, schedule: Q01DX009 (ip), vehicle: saline 98 % of control | dose: 20.0 mg/kg/injection, schedule: Q01DX001 (ip), vehicle: saline 102 % of control | dose: 20.0 mg/kg/injection, schedule: Q01DX009 (ip), vehicle: saline 109 % of control | dose: 40.0 mg/kg/injection, schedule: Q01DX009 (ip), vehicle: saline 98 % of control

O=C(NC/C(Br)=C/Br)C(F)(F)F
inactive: dose: 100.0 mg/kg/injection, schedule: Q01DX001 (ip), vehicle: Klucel (hydroxypropylcellulose) (HPC) 113 % of control | [4] 90 % of control | dose: 200.0 mg/kg/injection, schedule: Q01DX001 (ip), vehicle: Klucel (hydroxypropylcellulose) (HPC) 105 % of control | [5] 88 % of control | dose: 400.0 mg/kg/injection, schedule: Q01DX001 (ip), vehicle: Klucel (hydroxypropylcellulose) (HPC) 105 % of control | [6] 90 % of control

NC(N)=NN=C1CCC(C2CCCCC2)CC1 (stereo unspecified)
inactive: dose: 15.0 mg/kg/injection, schedule: Q01DX Z (ip), vehicle: methylcellulose (MC) 95 % of control | dose: 30.0 mg/kg/injection, schedule: Q01DX Z (ip), vehicle: methylcellulose (MC) 97 % of control | dose: 30.0 mg/kg/injection, schedule: Q01DX Z (oral), vehicle: methylcellulose (MC) 92 % of control | dose: 60.0 mg/kg/injection, schedule: Q01DX Z (ip), vehicle: methylcellulose (MC) 92 % of control | dose: 60.0 mg/kg/injection, schedule: Q01DX Z (oral), vehicle: methylcellulose (MC) 92 % of control | dose: 120.0 mg/kg/injection, schedule: Q01DX Z (ip), vehicle: methylcellulose (MC) 92 % of control | dose: 120.0 mg/kg/injection, schedule: Q01DX Z (oral), vehicle: methylcellulose (MC) 93 % of control

CCCCCCCC(N)=O
inactive: dose: 50.0 mg/kg/injection, schedule: Q01DX009 (ip), vehicle: saline with Tween-80 97 % of control | [7] 107 % of control and 90 % of control | [1] 100 % of control | [8] 97 % of control and 106 % of control | [2] 93 % of control | [9] 114 % of control | [3] 91 % of control

CN(C)c1ccc(C=Nc2cccc(Cl)c2)cc1
inactive: [4] 91 % of control | [5] 93 % of control | [6] 91 % of control

CCOC(=O)C1OC12CCC(C(C)(C)C)CC2 (stereo unspecified)
inactive: [7] 95 % of control | dose: 100.0 mg/kg/injection, schedule: Q04DX002 (ip), vehicle: saline with Tween-80 100 % of control | [8] 91 % of control | dose: 200.0 mg/kg/injection, schedule: Q04DX002 (ip), vehicle: saline with Tween-80 100 % of control | [9] 88 % of control | dose: 400.0 mg/kg/injection, schedule: Q04DX002 (ip), vehicle: saline with Tween-80 93 % of control
